The target of data set [1] is T1, human 5-HT2A receptor (Homo sapiens, UniProt P28223).
T1 construct: host or cells: CHO-K1
Nature of the data set: radioligand binding, [3H]-ketanserin displacement at 5-HT2AR in CHO-K1 cells. Particulars: ± SEM; footnote HEK-293 cells, method CHO-K1 cells. The protocol: All experiments were performed using HEK293 cells stably expressing human 5-HT1A, 5-HT6, 5-HT7b, and D2L receptors or CHO-K1 cells with a plasmid containing the human 5-HT2A receptor coding sequence (PerkinElmer, Waltham, MA, USA), according to previously reported procedures. Cells were cultured in 150 cm^2 flasks and, after reaching a 90% confluence, were washed with PBS and the centrifugated (200 g) in PBS containing 0.1 mM EDTA and 1 mM dithiothreitol. Cell pellets were subsequently homogenized (in Ultra Turrax tissue homogenizer) and centrifugated twice (35,000× g for 15 min at 4 °C), with 15 min incubation at 37 °C between the centrifugations. All assays were incubated in dedicated buffers and in a total volume of 200 µL in 96-well microtitre plates for 1 h at 37 °C, except for 5-HT1AR and 5-HT2AR that was incubated for 1 h at room temperature. The process of equilibration is terminated by rapid filtration through Unifilter-96 (PerkinElmer) plates with a 96-well cell harvester and radioactivity retained on the filters was quantified on a Microbeta plate reader (PerkinElmer, USA). For displacement studies, the following assay samples containing the proper radioligand were used: 2.5 nM [^3H]-8-OH-DPAT (PerkinElmer, #NET929001MC) for 5-HT1AR; 1 nM [^3H]-ketanserin (PerkinElmer, #NET791250UC) for 5-HT2AR; 2 nM [^3H]-LSD (PerkinElmer, #NET638250UC) for 5-HT6R; and 0.8 nM [^3H]-5-CT (PerkinElmer, #NET1188U100UC) for 5-HT7R or 2.5 nM [^3H]-raclopride (PerkinElmer, #NET975001MC) for D2LR. Non-specific binding was determined using 10 μM 5-HT for 5-HT1AR and 5-HT7R, 20 μM mianserin for 5-HT2AR, 10 μM methiothepine for 5-HT6R, and 10 μM haloperidol for D2LR. […] Results were expressed as means of at least three separate experiments.

Data set [2] has as its target T2, 5-HT7R (Homo sapiens, UniProt P34969).
T2 construct: expressed in transfected cells; host or cells: HEK-293 (prepared with Lipofectamine 2000, G418 selection)
Kind of data set: intrinsic activity at 5-HT7R, LANCE cAMP assay in HEK-293 cells, 5-CT stimulated. Particulars: read-out: 5-HT7 Kb. The data set is classed as cell-based. The protocol: Cells (prepared with the use of Lipofectamine 2000) were maintained at 37 °C in a humidified atmosphere with 5% CO2 and grown in Dulbeco’s Modifier Eagle Medium containing 10% dialyzed fetal bovine serum and […] G418 sulphate. For functional experiments, cells were subcultured in 25 cm diameter dishes, grown to 90% confluence, washed twice with pre-warmed to 37 °C phosphate buffered saline (PBS) and were centrifuged for 5 min (160× g). The supernatant was aspirated, then the cell pellet was resuspended in stimulation buffer (1 × HBSS, 5 mM HEPES, 0.5 mM IBMX, 0.1% BSA). The cAMP level was measured using the LANCE cAMP detection kit (PerkinElmer), according to the manufacturer’s directions. […] Cells (5 µL) were incubated with compounds (5 µL) for 30 min at room temperature in 384-well white opaque microtiter plate. After incubation, the reaction was stopped, and cells were lysed by the addition of 10 µL working solution (5 µL Eu-cAMP and 5 µL ULight-anti-cAMP). The assay plate was incubated for 1 h at room temperature. Time-resolved fluorescence resonance energy transfer (TR-FRET) was detected by an Infinite M1000 Pro (Tecan) using instrument settings from LANCE cAMP detection kit manual. Kb values were calculated from the Cheng–Prusoff equation specific for the analysis of functional inhibition curves: Kb = IC50/(1+A/EC50) where A is the agonist concentration, IC50 is the concentration of the antagonist producing a 50% reduction in the response to the agonist, and EC50 is the agonist concentration which causes half of the maximal response.
Background: TR-FRET usually uses a lanthanide donor and a delayed reading to cut background.

Data set [3] deals with Albino Swiss mice. Nature of the data set: spontaneous locomotor activity. It is filed as in vivo. The settings on record: ip. The protocol:
Adult male Albino Swiss mice (CD-1, 8 weeks old, 25–30 g: Jagiellonian University Medical College, Krakow, Poland) were used in the study. Animals were housed in groups of 8 in a transparent plastic cage (382 × 220 × 150 mm) at room temperature (22 ± 2 °C), on a 12 h light/dark cycle with ad libitum access to food and water. Mice were handled for one week before starting the experimental procedures. The separate groups of animals were used in the forced swim test and in the locomotor studies. All studies were approved by the Institutional Animal Care and Ethics Committee of the Jagiellonian University (approval no.: 80/2015).
Tested compounds were dissolved with 1% Tween 80. […] The control animals were given ip injections of the 2% DMSO in 1% Tween 80 (vehicle). The volume of vehicle or drug solutions was 10 mL/kg.
Locomotor activity was recorded with an Opto M3 multichannel activity monitor, photoresistor actometers connected to a counter for the recording of light-beam interruptions (MultiDevice Software v1.3, Columbus Instruments, Columbus, OH, USA). The mice, after being placed into the cages individually, had their activity evaluated between the 2nd and the 6th minute. The chosen time period corresponded with the time interval considered in the FST. Spontaneous locomotor activity was evaluated as the distance travelled plus the movements of climbing by animals.

[4] abbreviates: doses effective in the FST (6: 4, 8 mg/kg; mirtazapine: 16 mg/kg).

T2 sequence (P34969 1-432): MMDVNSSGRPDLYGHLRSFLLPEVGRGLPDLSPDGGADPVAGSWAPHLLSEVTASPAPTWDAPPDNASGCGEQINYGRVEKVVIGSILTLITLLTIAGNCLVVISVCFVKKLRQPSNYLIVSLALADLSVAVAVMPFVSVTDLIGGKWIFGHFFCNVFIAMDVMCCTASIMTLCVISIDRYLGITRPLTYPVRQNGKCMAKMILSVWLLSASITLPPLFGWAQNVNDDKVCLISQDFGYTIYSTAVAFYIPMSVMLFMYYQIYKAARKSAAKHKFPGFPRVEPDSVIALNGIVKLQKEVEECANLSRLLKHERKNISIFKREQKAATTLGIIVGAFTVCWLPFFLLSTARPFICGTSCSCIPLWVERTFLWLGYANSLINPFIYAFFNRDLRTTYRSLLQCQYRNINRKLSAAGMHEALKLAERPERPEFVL
T1 sequence (P28223 whole entry): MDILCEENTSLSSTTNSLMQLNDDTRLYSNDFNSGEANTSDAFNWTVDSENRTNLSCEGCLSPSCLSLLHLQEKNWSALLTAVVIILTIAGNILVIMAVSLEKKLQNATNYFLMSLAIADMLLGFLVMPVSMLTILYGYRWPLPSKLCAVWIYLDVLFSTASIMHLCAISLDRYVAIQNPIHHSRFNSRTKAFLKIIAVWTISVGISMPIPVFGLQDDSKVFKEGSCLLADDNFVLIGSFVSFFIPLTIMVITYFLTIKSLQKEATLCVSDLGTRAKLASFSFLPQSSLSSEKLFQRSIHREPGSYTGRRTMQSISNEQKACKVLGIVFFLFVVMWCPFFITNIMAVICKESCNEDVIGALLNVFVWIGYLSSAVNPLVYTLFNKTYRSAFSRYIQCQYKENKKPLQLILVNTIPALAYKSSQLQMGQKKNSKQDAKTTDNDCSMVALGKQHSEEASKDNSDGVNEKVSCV

With `CC1(C)Cc2cccc(OCCN3CCC(NS(=O)(=O)c4ccc(F)cc4)CC3)c2O1` [Compound 6, 4-Fluoro-N-{1-[2-(2,2-dimethyl-2,3-dihydrobenzofuran-7-yloxy)ethyl]piperidin-4-yl} benzenesulfonamide], the Ki in data set [1] was found to be 538 ± 38 nM. Further, the Kb in data set [2] was 186 ± 37 nM. The “influence on spontaneous locomotor activity (sedation)” value (“influence” below) in data set [3] (setting [4]) is recorded as “induced sedation”.

In data set [1], `CC1(C)Cc2cccc(OCCN3CCC(NS(=O)(=O)c4cc(Cl)ccc4F)CC3)c2O1` [Compound 8, 5-Chloro-2-fluoro-N-{1-[2-(2,2-dimethyl-2,3-dihydrobenzofuran-7-yloxy)ethyl]piperidin-4-yl}benzenesulfonamide] displayed an inhibition constant (Ki) of 1420 ± 98 nM. Also, the Kb in data set [2] turned out to be 141 ± 43 nM. For the same compound, the “influence” value in data set [3] (setting [4]) is on record as “no influence on the spontaneous locomotor activity”.

The compound `CC1(C)Cc2cccc(OCCN3CCC(NS(=O)(=O)c4cncc5ccccc45)CC3)c2O1` [Compound 13, 4-Isoquinoline-N-{1-[2-(2,2-dimethyl-2,3-dihydrobenzofuran-7-yloxy)ethyl]piperidin-4-yl}sulfonamide] gave an inhibition constant Ki in data set [1] of 1420 ± 105 nM. In data set [2], the Kb came out at 155 ± 30 nM. Further, the results for the “influence” value in data set [3] (1 mg/kg) and in data set [3] (higher doses (above 1 mg/kg)) were “without affecting locomotor activity” and “caused sedation”, respectively.

As a reminder, the Ki is the dissociation constant of the complex between target and ligand, obtained from inhibition or displacement.

Source of the values: publication PMC8270334, “Design, Sustainable Synthesis and Biological Evaluation of a Novel Dual α2A/5-HT7 Receptor Antagonist with Antidepressant-Like Properties” (Molecules, 2021).
